Reference: ChEMBL document CHEMBL5335772, “EGCG adjuvant chemotherapy: Current status and future perspectives” (Eur J Med Chem, 2023)

Experiments:
BEL-7404 tumor cell line [1] = test: Induction of apoptosis in human BEL-7404 tumor cell line in presence of EGCG at 30.5 uM; assay type: functional, cell-based
ADR5000 cell line [2] = test: Induction of apoptosis in human CEM/ADR5000 cells in presence of EGCG at 20 uM; assay type: functional, cell-based
BEL-7404 tumor cell line [3] = test: Antiproliferative activity against human BEL-7404 tumor cell line assessed as inhibition of cell proliferation incubated for 72 hrs by MTT assay; assay type: functional, cell-based; details: BEL-7404, 72 h
ADR5000 cell line [4] = test: Antiproliferative activity against human CEM/ADR5000 cells assessed as reduction in cell viability incubated for 48 hrs by MTT assay; assay type: functional, cell-based; details: ADR5000, 48 h
MCF7 = test: Induction of apoptosis in human MCF7 cells in presence of EGCG at 50 uM
DLD-1 [5] = test: Antiproliferative activity against human DLD-1 cells assessed as reduction in cell growth incubated for 24 hrs by MTT assay; assay type: functional, cell-based; details: DLD-1, 24 h
DLD-1 [6] = test: Induction of apoptosis in human DLD-1 cells in presence of EGCG at 50 uM; assay type: functional, cell-based

Question: `COc1cccc2c1C(=O)c1c(O)c3c(c(O)c1C2=O)C[C@@](O)(C(=O)CO)C[C@@H]3O[C@H]1C[C@H](N)[C@H](O)[C@H](C)O1` [DOXORUBICIN] was tested. Which IC50 (BEL-7404 tumor cell line [1]) did it give?
Answer: 3.28 µM

Question: And the IC50 (ADR5000 cell line [2])?
Answer: 29.9 µM

Question: And the IC50 (BEL-7404 tumor cell line [3])?
Answer: 1.62 µM

Question: What about the IC50 (ADR5000 cell line [4]) of the same molecule?
Answer: 88.9 µM

Question: For `CC/C(=C(\c1ccccc1)c1ccc(OCCN(C)C)cc1)c1ccccc1` [TAMOXIFEN], which IC50 (MCF7) is on record?
Answer: 5.8 µM

Question: Which results are given for `O=c1[nH]cc(F)c(=O)[nH]1` [FLUOROURACIL]?
Answer: IC50 (DLD-1 [5]): 150 µM; IC50 (DLD-1 [6]): 11 µM
